Measured values reported in article PMC3969223, “Characterization of WZ4003 and HTH-01-015 as selective inhibitors of the LKB1-tumour-suppressor-activated NUAK kinases” (Biochemical Journal, 2013).

Key:
[1] = system: MEFs; assay: Cell proliferation assay (CellTiter 96 AQueous); assay type: cell-based, mouse; details: 10 μM, 5 days; same extent as NUAK1-knockout
Procedure: Cell proliferation assays were carried out colorimetrically in 96-well plates using the CellTiter 96® AQueous Non-Radioactive Cell Proliferation Assay kit (Promega) following the manufacturer's protocol. Initially, 2000 cells per well were seeded for U2OS cells and 3000 cells per well were seeded for MEFs. The proliferation assays were carried out over 5 days in the presence or absence of 10 μM HTH-01-015 or WZ4003.

[2] = system: MYPT1 phosphorylation; assay: MYPT1 phosphorylation on detachment, MEFs; assay type: cell-based, mouse; details: 10 μM, 16 h
Procedure: (§1) Figure 7 NUAK1 inhibition suppresses cell proliferation (A) U2OS cells were incubated with or without 10 μM WZ4003 or 10 μM HTH-01-015 and a cell proliferation assay was carried out over 5 days in triplicate using the CellTiter 96® AQueous Non-Radioactive Cell Proliferation Assay kit (Promega) (as described in the Materials and methods section). U2OS cells in which NUAK1 has been knocked-down using two different shRNA hairpins were used in parallel as controls. The efficiency of the knock down of each shRNA is shown in top panel. SCR, control scrambled shRNA hairpin; shNUAK1 (1), first NUAK1 shRNA hairpin; shNUAK1 (2), second NUAK1 shRNA hairpin. (B) U2OS cells were treated with (+) or without (−) 10 μM WZ4003 or 10 μM HTH-01-015. After 16 h cell media was removed and cells were treated with EDTA-PBS-based cell dissociation buffer supplemented with 10 μM WZ4003, 10 μM HTH-01–015 or DMSO for 20 min. Cell detachment was induced with gentle tapping of the plates followed by gentle centrifugation at 70 g for 3 min. Cells were lysed immediately after removal of the media and immunoblotted for the detection of the indicated antibodies. (C and D) As above, except NUAK1^+/+ and NUAK1^−/− MEFs were used. Similar results were obtained in three separate experiments.

[3] = molecular target: CHK2 (Homo sapiens, UniProt O96017); assay: Kinase profiling; assay type: biochemical; details: 0.1 or 1 μM inhibitor; mean of triplicate
Procedure: (§2) Kinase inhibitor specificity profiling assays were carried out at The International Centre for Protein Kinase Profiling (http://www.kinase-screen.mrc.ac.uk/) against a panel of 140 protein kinases as described previously. Results are presented as a percentage of kinase activity in DMSO control reactions. Protein kinases were assayed in vitro with 0.1 or 1 μM of the inhibitors and the results are presented as an average of triplicate reactions±S.D. or in the form of comparative histograms.

[4] = molecular target: IKKε (Homo sapiens, UniProt Q14164); assay: Kinase profiling; assay type: biochemical; details: 0.1 or 1 μM inhibitor; mean of triplicate
Procedure: as §2

[5] = molecular target: PAK6 (Homo sapiens, UniProt Q9NQU5); assay: Kinase profiling; assay type: biochemical; details: 0.1 or 1 μM inhibitor; mean of triplicate
Procedure: as §2

[6] = molecular target: Src (Homo sapiens, UniProt P12931); assay: Kinase profiling; assay type: biochemical; details: 0.1 or 1 μM inhibitor; mean of triplicate
Procedure: as §2

[7] = molecular target: MNK1 (Homo sapiens, UniProt Q9BUB5); assay: Kinase profiling; assay type: biochemical; details: 0.1 or 1 μM inhibitor; mean of triplicate
Procedure: as §2

[8] = molecular target: CK1γ 2 (Homo sapiens, UniProt P78368); assay: Kinase profiling; assay type: biochemical; details: 0.1 or 1 μM inhibitor; mean of triplicate
Procedure: as §2

[9] = molecular target: ERK2 (Homo sapiens, UniProt P28482); assay: Kinase profiling; assay type: biochemical; details: 0.1 or 1 μM inhibitor; mean of triplicate
Procedure: as §2

[10] = molecular target: PDK1 (Homo sapiens, UniProt O15530); assay: Kinase profiling; assay type: biochemical; details: 0.1 or 1 μM inhibitor; mean of triplicate
Procedure: as §2

[11] = molecular target: MARK1 (Homo sapiens, UniProt Q9P0L2); assay: Kinase profiling; assay type: biochemical
Procedure: as §2

[12] = molecular target: MKK2 (Homo sapiens, UniProt P36507); assay: Kinase profiling; assay type: biochemical; details: 0.1 or 1 μM inhibitor; mean of triplicate
Procedure: as §2

[13] = molecular target: BTK (Homo sapiens, UniProt Q06187); assay: Kinase profiling; assay type: biochemical; details: 0.1 or 1 μM inhibitor; mean of triplicate
Procedure: as §2

[14] = molecular target: NEK6 (Homo sapiens, UniProt Q9HC98); assay: Kinase profiling; assay type: biochemical; details: 0.1 or 1 μM inhibitor; mean of triplicate
Procedure: as §2

[15] = molecular target: MEKK1 (Homo sapiens, UniProt Q13233); assay: Kinase profiling; assay type: biochemical; details: 0.1 or 1 μM inhibitor; mean of triplicate
Procedure: as §2

[16] = system: NUAK1+/+ MEFs; assay: Wound-healing (migration) assay; assay type: cell-based, mouse; details: 10 μM
Procedure: MEFs were split and an approximately equal number of cells were loaded into the left and right chambers of the IBIDI Self-Insertion Inserts (catalogue number 80209). Each insert was placed in one well of a 12-well plate and the cells were seeded with or without treatment with the inhibitors. For the comparison of the migration properties of different MEFs on the same video, a single insert was used and an equal number of MEFs were counted and loaded on either chamber of the same insert. To study the effect of inhibitors on cell migration, wound-healing assays on MEFs were also carried out on separate inserts with or without treatment with a 10 μM concentration of WZ4003 or HTH-01-015. Inhibitors were added to the cells 1 h before the start of the migration assay. The experiments were carried out in triplicate. After overnight incubation at 37°C and 5% CO2, the insert was removed and the migration of cells into the 500 μm gap between the chambers was observed. The wound-gap healing properties of the cells were observed over a period of 15–20 h under a Nikon Eclipse Ti microscope with images taken every 2 min by a Photometrics cascade II CCD (charge-coupled device) camera using Nikon NIS Elements software.

[17] = system: U2OS cells; assay: 3D Matrigel Transwell invasion assay; assay type: cell-based; details: 10 μM, 16 h, 10% FBS chemoattractant
Procedure: The ability of U2OS cells to invade in the presence or absence of 10 μM HTH-01-015 or WZ4003 was tested in a growth-factor-reduced Matrigel™ invasion chamber (BD Biosciences, catalogue number 354483) as described previously. Cells were serum-deprived for 2 h, detached using cell-dissociation buffer (Gibco), and 2.5×10^5 cells suspended in DMEM containing 1% (w/v) BSA were added to the upper chambers in triplicate and chemoattractant [DMEM containing 10% (v/v) FBS] was added to the lower wells. The chambers were kept at 37°C in 5% CO2 for 16 h in the presence or absence of 10 μM HTH-01-015 or WZ4003 both in the upper and lower wells. Non-invaded cells were removed from the upper face of the filters by scraping, and cells that had migrated to the lower face of the filters were fixed and stained with Reastain Quick-Diff kit (Reagena) and images (×10 magnification) were captured. For cell invasion assays, statistical significance was assessed using GraphPad Prism 5.0.

[18] = system: MYPT1 phosphorylation; assay: MYPT1 phosphorylation on detachment, U2OS; assay type: cell-based; details: 10 μM, 16 h
Procedure: as §1

Chain of MNK1 (Q9BUB5 whole entry): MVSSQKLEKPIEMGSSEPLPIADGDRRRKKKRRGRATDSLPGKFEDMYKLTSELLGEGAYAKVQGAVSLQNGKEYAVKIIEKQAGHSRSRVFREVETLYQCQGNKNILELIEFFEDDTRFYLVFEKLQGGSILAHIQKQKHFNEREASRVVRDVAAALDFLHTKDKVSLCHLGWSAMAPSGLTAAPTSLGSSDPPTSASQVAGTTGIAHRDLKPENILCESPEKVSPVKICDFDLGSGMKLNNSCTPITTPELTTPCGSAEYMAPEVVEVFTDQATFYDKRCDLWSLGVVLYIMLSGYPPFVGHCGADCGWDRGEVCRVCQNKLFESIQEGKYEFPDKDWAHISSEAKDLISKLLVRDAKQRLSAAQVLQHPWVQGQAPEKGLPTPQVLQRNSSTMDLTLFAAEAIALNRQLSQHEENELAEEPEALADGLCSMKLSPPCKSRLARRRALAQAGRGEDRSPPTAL
Chain of MKK2 (P36507 whole entry): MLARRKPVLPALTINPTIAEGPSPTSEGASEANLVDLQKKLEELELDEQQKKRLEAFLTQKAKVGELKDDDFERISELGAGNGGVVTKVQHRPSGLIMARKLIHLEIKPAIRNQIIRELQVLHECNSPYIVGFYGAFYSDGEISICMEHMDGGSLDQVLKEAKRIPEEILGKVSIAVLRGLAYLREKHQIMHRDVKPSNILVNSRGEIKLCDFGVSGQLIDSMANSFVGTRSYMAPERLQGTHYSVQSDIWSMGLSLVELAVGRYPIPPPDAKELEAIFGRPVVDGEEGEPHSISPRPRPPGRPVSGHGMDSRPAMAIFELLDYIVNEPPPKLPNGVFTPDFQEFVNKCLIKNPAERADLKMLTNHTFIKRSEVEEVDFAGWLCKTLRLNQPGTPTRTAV
Chain of CK1γ 2 (P78368 whole entry): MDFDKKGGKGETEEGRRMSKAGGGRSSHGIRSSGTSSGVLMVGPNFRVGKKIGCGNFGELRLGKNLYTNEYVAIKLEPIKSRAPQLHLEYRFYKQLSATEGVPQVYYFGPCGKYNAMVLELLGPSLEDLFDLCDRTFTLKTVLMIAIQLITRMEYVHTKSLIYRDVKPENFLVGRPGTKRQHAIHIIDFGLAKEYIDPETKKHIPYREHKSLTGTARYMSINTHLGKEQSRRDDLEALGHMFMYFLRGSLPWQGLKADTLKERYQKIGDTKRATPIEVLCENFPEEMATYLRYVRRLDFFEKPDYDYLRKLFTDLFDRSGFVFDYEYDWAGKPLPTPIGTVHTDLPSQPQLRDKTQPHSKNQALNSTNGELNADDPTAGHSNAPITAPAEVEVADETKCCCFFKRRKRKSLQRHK
Chain of CHK2 (O96017 whole entry): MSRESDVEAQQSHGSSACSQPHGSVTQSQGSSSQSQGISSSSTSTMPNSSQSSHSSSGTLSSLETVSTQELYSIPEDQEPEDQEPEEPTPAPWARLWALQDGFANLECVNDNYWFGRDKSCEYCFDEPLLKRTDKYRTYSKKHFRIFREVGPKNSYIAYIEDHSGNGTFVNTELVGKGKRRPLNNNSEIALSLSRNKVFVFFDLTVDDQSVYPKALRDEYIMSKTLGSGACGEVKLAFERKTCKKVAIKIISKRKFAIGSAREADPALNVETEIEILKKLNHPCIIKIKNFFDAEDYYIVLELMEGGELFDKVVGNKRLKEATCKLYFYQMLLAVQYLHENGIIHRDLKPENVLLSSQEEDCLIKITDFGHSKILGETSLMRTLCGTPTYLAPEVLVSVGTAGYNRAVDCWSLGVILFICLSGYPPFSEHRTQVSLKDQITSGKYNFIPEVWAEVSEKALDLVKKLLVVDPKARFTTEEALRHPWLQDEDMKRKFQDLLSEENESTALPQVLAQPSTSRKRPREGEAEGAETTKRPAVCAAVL
Chain of PDK1 (O15530 whole entry): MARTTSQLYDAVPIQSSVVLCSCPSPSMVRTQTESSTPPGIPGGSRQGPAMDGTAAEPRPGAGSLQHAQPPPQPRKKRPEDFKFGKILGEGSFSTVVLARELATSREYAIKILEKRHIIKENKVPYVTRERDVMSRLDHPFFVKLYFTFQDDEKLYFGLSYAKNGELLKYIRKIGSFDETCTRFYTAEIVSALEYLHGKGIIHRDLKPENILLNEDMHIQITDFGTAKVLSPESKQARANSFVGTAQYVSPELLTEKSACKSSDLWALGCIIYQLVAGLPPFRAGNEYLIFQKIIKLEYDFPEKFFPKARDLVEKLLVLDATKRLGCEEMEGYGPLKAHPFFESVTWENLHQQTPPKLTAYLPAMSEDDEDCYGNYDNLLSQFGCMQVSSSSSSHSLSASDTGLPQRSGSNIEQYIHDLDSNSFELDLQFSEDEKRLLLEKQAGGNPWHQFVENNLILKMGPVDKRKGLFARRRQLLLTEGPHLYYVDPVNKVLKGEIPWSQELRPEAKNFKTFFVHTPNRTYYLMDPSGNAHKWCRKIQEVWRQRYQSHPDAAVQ
Chain of NEK6 (Q9HC98 whole entry): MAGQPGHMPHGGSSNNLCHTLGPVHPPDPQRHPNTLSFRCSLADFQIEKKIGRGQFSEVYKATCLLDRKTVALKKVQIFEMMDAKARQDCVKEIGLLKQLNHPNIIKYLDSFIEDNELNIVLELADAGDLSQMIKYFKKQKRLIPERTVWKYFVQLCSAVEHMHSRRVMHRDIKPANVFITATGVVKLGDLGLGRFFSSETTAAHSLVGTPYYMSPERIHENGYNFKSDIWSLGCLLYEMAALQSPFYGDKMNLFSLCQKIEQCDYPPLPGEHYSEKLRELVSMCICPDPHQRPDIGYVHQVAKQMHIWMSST
Chain of IKKε (Q14164 whole entry): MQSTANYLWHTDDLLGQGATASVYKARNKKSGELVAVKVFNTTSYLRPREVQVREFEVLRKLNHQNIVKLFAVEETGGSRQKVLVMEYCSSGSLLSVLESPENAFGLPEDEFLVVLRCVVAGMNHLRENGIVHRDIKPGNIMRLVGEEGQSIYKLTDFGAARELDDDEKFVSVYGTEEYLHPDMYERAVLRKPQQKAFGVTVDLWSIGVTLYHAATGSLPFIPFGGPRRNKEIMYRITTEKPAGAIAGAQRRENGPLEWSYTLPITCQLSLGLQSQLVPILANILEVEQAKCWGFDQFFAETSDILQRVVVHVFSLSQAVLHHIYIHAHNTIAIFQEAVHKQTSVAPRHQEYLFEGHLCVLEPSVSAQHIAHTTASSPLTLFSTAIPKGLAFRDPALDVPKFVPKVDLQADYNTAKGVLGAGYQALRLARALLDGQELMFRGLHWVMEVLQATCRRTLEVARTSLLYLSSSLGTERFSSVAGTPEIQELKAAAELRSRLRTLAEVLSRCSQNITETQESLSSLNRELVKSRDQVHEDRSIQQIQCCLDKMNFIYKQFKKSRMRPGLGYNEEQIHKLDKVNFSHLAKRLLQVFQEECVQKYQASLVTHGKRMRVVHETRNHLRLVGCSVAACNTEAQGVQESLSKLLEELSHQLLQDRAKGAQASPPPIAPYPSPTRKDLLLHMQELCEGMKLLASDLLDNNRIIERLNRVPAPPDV
Chain of MEKK1 (Q13233 whole entry): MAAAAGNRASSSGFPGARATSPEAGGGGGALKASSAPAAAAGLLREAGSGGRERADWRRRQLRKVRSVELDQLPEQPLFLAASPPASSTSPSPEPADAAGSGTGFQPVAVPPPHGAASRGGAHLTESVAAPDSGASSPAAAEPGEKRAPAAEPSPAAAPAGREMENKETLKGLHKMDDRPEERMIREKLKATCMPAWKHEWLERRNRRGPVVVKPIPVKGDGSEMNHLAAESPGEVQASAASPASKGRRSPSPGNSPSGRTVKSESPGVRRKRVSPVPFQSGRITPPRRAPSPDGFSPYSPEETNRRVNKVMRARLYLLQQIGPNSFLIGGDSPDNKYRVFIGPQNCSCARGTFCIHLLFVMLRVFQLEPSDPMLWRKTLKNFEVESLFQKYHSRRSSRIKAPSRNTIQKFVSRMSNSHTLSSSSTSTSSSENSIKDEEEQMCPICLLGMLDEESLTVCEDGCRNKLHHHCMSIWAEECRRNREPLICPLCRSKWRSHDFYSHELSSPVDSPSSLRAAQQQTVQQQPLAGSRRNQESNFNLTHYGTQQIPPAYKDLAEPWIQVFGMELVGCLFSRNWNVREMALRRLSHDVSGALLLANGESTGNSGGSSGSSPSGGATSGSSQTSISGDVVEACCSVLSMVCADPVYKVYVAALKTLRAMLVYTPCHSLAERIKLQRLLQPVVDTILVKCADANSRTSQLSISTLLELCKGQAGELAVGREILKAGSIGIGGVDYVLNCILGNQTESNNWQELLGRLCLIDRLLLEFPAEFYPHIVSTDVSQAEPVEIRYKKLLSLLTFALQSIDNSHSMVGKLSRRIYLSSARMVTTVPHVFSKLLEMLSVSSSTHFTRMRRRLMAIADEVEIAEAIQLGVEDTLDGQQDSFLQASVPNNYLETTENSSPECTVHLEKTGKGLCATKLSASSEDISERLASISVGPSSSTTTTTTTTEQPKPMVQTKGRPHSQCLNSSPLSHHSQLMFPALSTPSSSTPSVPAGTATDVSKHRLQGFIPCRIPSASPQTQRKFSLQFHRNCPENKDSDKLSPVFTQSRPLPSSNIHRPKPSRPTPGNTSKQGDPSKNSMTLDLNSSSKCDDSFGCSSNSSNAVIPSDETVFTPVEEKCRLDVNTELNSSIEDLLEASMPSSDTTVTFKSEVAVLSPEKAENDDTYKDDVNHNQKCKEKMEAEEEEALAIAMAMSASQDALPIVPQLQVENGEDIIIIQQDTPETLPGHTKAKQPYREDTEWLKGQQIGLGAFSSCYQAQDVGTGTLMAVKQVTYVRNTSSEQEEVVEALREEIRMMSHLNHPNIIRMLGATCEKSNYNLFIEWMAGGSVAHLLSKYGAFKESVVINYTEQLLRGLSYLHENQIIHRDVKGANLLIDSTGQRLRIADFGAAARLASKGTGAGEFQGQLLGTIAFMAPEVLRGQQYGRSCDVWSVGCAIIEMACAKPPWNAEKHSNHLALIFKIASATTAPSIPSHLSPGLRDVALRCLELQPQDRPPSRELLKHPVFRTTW

Compound	Proliferation of MEFs (in words) [1]	Suppression of MYPT1 phosphorylation in MEFs (in words) [2]	CHK2 activity, percentage of DMSO control [3]	IKKε activity, percentage of DMSO control [4]	PAK6 activity, percentage of DMSO control [5]	Src activity, percentage of DMSO control [6]	MNK1 activity, percentage of DMSO control [7]	CK1γ 2 activity, percentage of DMSO control [8]	ERK2 activity, percentage of DMSO control [9]	PDK1 activity, percentage of DMSO control [10]	MARK1 activity, percentage of DMSO control ([11]; 0.1 or 1 μM inhibitor, mean of triplicate)	MKK2 activity, percentage of DMSO control [12]	BTK activity, percentage of DMSO control [13]	NEK6 activity, percentage of DMSO control [14]	MEKK1 activity, percentage of DMSO control [15]	Cell migration in wound-healing assay (in words) [16]	Invasiveness of U2OS cells (in words) [17]	Suppression of MYPT1 phosphorylation in U2OS cells (in words) [18]	Inhibition of MARK1 in profiling (in words) ([11]; 1 μM)
Cc1nc(Nc2cnn(C3CCNCC3)c2)nc2c1N(C)C(=O)c1cc3ccccc3cc1N2C [HTH-01-015]	suppressed proliferation	to the same extent as NUAK1-knockout	105 percentage	85 percentage	95 percentage	76 percentage	102 percentage	109 percentage	125 percentage	102 percentage	106 percentage	111 percentage	109 percentage	99 percentage	110 percentage	markedly reduced cell migration	markedly inhibited the invasiveness	to the same extent as shRNA-mediated NUAK1 knockdown	–
CCC(=O)Nc1cccc(Oc2nc(Nc3ccc(N4CCN(C)CC4)cc3OC)ncc2Cl)c1 [WZ4003]	suppressed proliferation	to the same extent as NUAK1-knockout	40 percentage	104 percentage	104 percentage	109 percentage	104 percentage	102 percentage	107 percentage	104 percentage	–	98 percentage	114 percentage	79 percentage	91 percentage	markedly reduced cell migration	markedly inhibited the invasiveness	to the same extent as shRNA-mediated NUAK1 knockdown	–
CN1C(=O)c2ccccc2N(C)c2nc(Nc3cnn(C4CCNCC4)c3)ncc21 [XMD-17-51]	–	–	–	–	–	–	–	–	–	–	–	–	–	–	–	–	–	–	inhibited
